According to ChEMBL document CHEMBL1150938, “Recent natural products based drug development: a pharmaceutical industry perspective” (J Nat Prod, 1998):

Tests used:
Homo sapiens [1] = assay: Inhibition of fractional cholesterol absorption in normolipidemic human at 300 mg administered twice daily for 2 weeks; type: functional; design: scale not given: the % may be the effect or the level left
Homo sapiens [2] = assay: Reduction in serum LDL-cholesterol level in normolipidemic human at 300 mg administered twice daily for 2 weeks; type: functional; design: scale not given: the % may be the effect or the level left

SMILES: C[C@@H]1CC[C@@]2(OC1)O[C@H]1C[C@H]3[C@@H]4CC[C@H]5C[C@@H](O[C@@H]6O[C@H](CO)[C@@H](O[C@@H]7O[C@H](CO)[C@@H](O)[C@H](O)[C@H]7O)[C@H](O)[C@H]6O)CC[C@]5(C)[C@H]4C(=O)C[C@]3(C)[C@H]1[C@@H]2C [PAMAQUESIDE]
- Activity (Homo sapiens [1]): 35%
- Activity (Homo sapiens [2]): 10%
